Where two headings read alike, the source gives them in different places.
Columns and labels:
[1] = Mouse grid shock (analgesia); assay type: in vivo; details: mice, minimal effective dose, in mg/kg
Protocol: The mouse grid consists of a perspex cage with wire grid bottom and a perspex lid, on which is placed a microphone sensitive to the frequency of a mouse squeak. A stimulator with motordriven potentiometer applies a sequence of square wave impulses of continuously increasing milliamperage to the grid. Frequency of impulses 20 cycles/sec., duration 5 msec. Milliamperage is recorded on a digital amperemeter connected to the stimulator. Activation of the microphone by a mouse-squeak cuts off the current and the final milliamperage appears on the meter.
Five mice are used for each dose level. Each mouse serves as its own control.
Prior to the administration of test substance the animals are placed on the grid one at a time, and the pain threshold is determined by increasing the current intensity until the mouse squeaks. The pain threshold may be read on the milliamperemeter. Fifteen minutes and 30 minutes after administration of test substance the mice are tested again and the pain thresholds recorded.
Analgesic effect is present, when the pain threshold is increased over the pre-dosing value (control value). The results are stated as % increase in pain threshold calculated on the basis of the control value.
The registration can also be done as an on-line procedure. In this case the punching instruction and punching cards will be provided automatically and the results will be registered as a minimal effective dose (MED) determined after van der Waerdens X-test.

methylphenidate = experiment: Methylphenidate antagonism in mice; assay type: in vivo; details: for ED50: Mus musculus, ip
Protocol: Methylphenidate antagonism (ED50 mg/kg i.p.)
(§1) Perspex observation cages without bottom and lid, consisting of 5 sections each measuring 12×25×30 cm.
3×2 mice are used for each dose level. Two or 24 hours after injection of test substance, methylphenidate, 60 mg/kg, is injected s.c. After administration of methylphenidate the mice are placed in the observation cages, 2 in each cage, where they remain for exactly 1 hour. The cages were placed on corrugated paper, the corrugations facing upwards. It is examined whether the mice have been biting the corrugated paper or not. […] If one or more of the control pairs have not been biting, the test has to be repeated on a new set of mice.
The result is stated in fractions: 0/3, 1/3, 2/3 and 3/3 where 0, 1, 2 and 3 are the number of pairs which have not been biting on receipt of the dose in question.

in vivo [2] = experiment: in vivo; set-up: species or system rats; details: for ED50: rat, in vivo, po, rats, p.o., strongest effect within first 6 hours, read-out: Catalep. (catalepsy wire mesh, rat, max, ED50)
Protocol: A vertical wire netting (50 cm×49 cm). The meshes (openings) of the netting are square (1 cm×1 cm). The wire diameter is 2 mm.
The animals are labeled and used in groups of five. The test substance is administered orally (p.o) at 4 dose levels selected from the fixed dose scale.
The animals are placed in the middle of the vertical wire netting 60, 120, 180, 240, 300 and 360 minutes after administration of the test compound. The animals are considered cataleptic when they remain immobile during a period of 15 seconds.
This cataleptic reaction is designated +. If the rats are "atonic" and passively slide down the wire mesh they are considered not cataleptic. If the animals climb up and down the wire mesh they are nor cataleptic.
In both situations the designation--is used.

in vivo [3] = details: iv
amphetamine = experiment: Amphetamine antagonism in rats; assay type: in vivo; details: Rattus norvegicus, po, rats, p.o., amphetamine 10 mg/kg base i.v.; read-out: Amphetamine antag. ED50 p.o.
Protocol: Amphetamine antagonism (ED50 mg/kg i.p.)
as §1
The test substance is given p.o. in a reasonable dose based on the determined LD50. Two or 24 hours later an intravaneous injection of amphetamine sulphate 13.6 mg/kg (10 mg/kg amphetamine base) is given, after which the rats are placed individually in the cages. The cages are placed on white corrugated paper. Five rats are used for each dose level. Observations are made after 55 minutes and 65 minutes-observation time: 1 minute. The animals are observed for stereotypy (movements of the head, compulsive gnawing). […] If the compound has full antagonistic effect another group of rats is used at a lower dose. […] The result is stated as fractions: 0/5, 1/5, 2/5, 3/5, 4/5 and 5/5, where 0, 1, 2, 3, 4 and 5 indicate the number of rats which have not shown stereotypy at the dose in question. The results are calculated as ED50 in mg/kg.

[4] = 2 h, read-out: MePh antag. ED50 2 hr i.p., mice, test substance i.p., 2 hr before methylphenidate 60 mg/kg s.c.
[5] = read-out: MePh antag. ED50 2 hr i.p., mice, test substance i.p., 2 hr before methylphenidate 60 mg/kg s.c.

| SMILES | MED Grid Shock [1] | ED50 (methylphenidate; [4]) [mg/kg] | ED50 (in vivo [2]) [mg/kg] | LD50 (in vivo [3]) [mg/kg] | further results |
| --- | --- | --- | --- | --- | --- |
| CSc1ccc2c(c1)[C@H](N1CCN(C)CC1)C[C@@H]2c1ccc(F)cc1 (relative stereo) [Lu 17-056] | 5 | 20 | – | – | – |
| OCCN1CCN([C@@H]2C[C@@H](c3ccccc3)c3ccccc32)CC1 (relative stereo) [Lu 17-061] | 10 | > 40 | – | – | – |
| CN1CCN([C@@H]2C[C@@H](c3ccccc3)c3ccccc32)CC1 (relative stereo) [Lu 17-091] | 10 | > 40 | – | – | – |
| OCCN1CCN([C@@H]2C[C@@H](c3ccc(F)cc3)c3cc(Cl)ccc32)CC1 (relative stereo) [Lu 17-116] | 10 | > 40 | – | – | – |
| OCCN1CCN([C@@H]2C[C@H](c3ccc(F)cc3)c3ccc(Cl)cc32)CC1 (relative stereo) [Lu 17-120] | 2.5 | 3.2 | > 20 | – | – |
| OCCN1CCN([C@@H]2C[C@H](c3ccc(F)cc3)c3ccccc32)CC1 (relative stereo) [Lu 17-124] | 5 | > 40 | – | – | – |
| O=C1OCCN1CCN1CCN(C2CC(c3ccc(F)cc3)c3ccc(F)cc32)CC1 (stereo not shown) [Lu 17-039] | – | 9.1 | > 80 | 113 | ED50 (amphetamine): 51 mg/kg |
| O=C1NCCN1CCN1CCN(C2CC(c3ccc(F)cc3)c3ccc(F)cc32)CC1 (stereo not shown) [Lu 17-045] | 2.5 | > 40 | > 80 | – | ED50 (amphetamine): > 80 mg/kg |
| CN1CCN(C2CC(c3ccc(F)cc3)c3cc(F)ccc32)CC1 (stereo not shown) [Lu 17-071] | 10 | > 40 | 31 | – | – |
| Cc1ccc2c(c1)C(N1CCN(CC3CC3)CC1)CC2c1ccc(F)cc1 (stereo not shown) [Lu 17-130] | 5 | 5 | > 40 | – | ED50 (amphetamine): > 40 mg/kg |
| O=C(CCCN1CCN(C2CC(c3ccc(F)cc3)c3ccc(F)cc32)CC1)c1ccc(F)cc1 (stereo not shown) [Lu 17-145] | 5 | > 40 | – | – | – |
| CS(=O)(=O)c1ccc2c(c1)C(N1CCN(CCO)CC1)CC2c1ccc(F)cc1 (stereo not shown) [Lu 18-041] | 5 | 10 | – | > 160 | – |
| OCC(CO)N1CCN(C2CC(c3ccc(F)cc3)c3ccc(F)cc32)CC1 (stereo not shown) [Lu 18-134, 1-(1,3-dihydroxy-2-propy)-4-(3-(4'-fluorophenyl)-6-fluoro-1-indanyl)piperazine] | < 5 | 1.9 | 57 | – | Ratio catalep./Amphet. (in vivo [2]; catalepsy ED50 / amphetamine antagonism ED50): 4.9; ED50 (amphetamine): 11.7 mg/kg |
| Fc1ccc(C2CC(N3CCN(CC4CC4)CC3)c3cc(F)ccc32)cc1 (stereo not shown) [Lu 18-157, 1-cyclopropylmethyl-4-(3-(4'-fluorophenyl)-6-fluoro-1-indanyl)piperazine] | – | 5 | – | 68 | – |
| Fc1ccc(C2CC(N3CCN(CCc4ccccc4)CC3)c3cc(F)ccc32)cc1 (stereo not shown) [Lu 18-159] | – | 15 | – | 40 | – |
| Fc1ccc(C2CC(N3CCN(CC=Cc4ccccc4)CC3)c3cc(F)ccc32)cc1 (stereo not shown) [Lu 18-162, 1-(3-phenyl-2-propenyl)-4-(3-(4'-fluorophenyl)-6-fluoro-1-indanyl)piperazine] | – | 29 | – | – | – |
| OCCCCN1CCN(C2CC(c3ccc(F)cc3)c3ccc(C(F)(F)F)cc32)CC1 (stereo not shown) [Lu 18-182] | – | 0.2 | 0.2 | 56 | ED50 (amphetamine): 0.2 mg/kg |
| OCC(CO)N1CCN(C2CC(c3ccc(F)cc3)c3ccc(C(F)(F)F)cc32)CC1 (stereo not shown) [Lu 18-185] | – | 0.2 | 0.3 | – | ED50 (amphetamine): 0.3 mg/kg |
| COc1ccc2c3c1O[C@H]1[C@@H](O)C=C[C@H]4[C@@H](C2)N(C)CC[C@@]341 [codeine, reference compound] | 20 | – | – | 110 | ED50 (methylphenidate; [5]): > 20 mg/kg |
| CCC(=O)O[C@](Cc1ccccc1)(c1ccccc1)[C@H](C)CN(C)C [dextropropoxyphene, reference compound] | 20 | – | – | 34 | ED50 (methylphenidate; [5]): > 20 mg/kg |
| CN1CC[C@]23c4c5ccc(O)c4O[C@H]2[C@@H](O)C=C[C@H]3[C@H]1C5 [morfine, reference compound] | 2.5 | – | – | – | MePh antag. ED50 2 hr i.p. (methylphenidate; mice, test substance i.p., 2 hr before methylphenidate 60 mg/kg s.c.): > 40 mg/kg |
